The record followed here is patent US20150353495A1 (PORTOLA PHARMACEUTICALS, INC., priority 2010, published 2015).

The structures appear in SMILES notation. Some results are limits rather than exact numbers.

In this assay the target is T1, full length active recombinant SYK enzyme (Homo sapiens, UniProt P43405).
T1 construct: full length active recombinant SYK enzyme (Millipore, Calif.); purchased Millipore
Briefly: Inhibition of Syk tyrosine phosphorylation activity (LANCE TR-FRET). The format is biochemical. The text has this:
This example illustrates methods for evaluating the compounds of the invention, along with results obtained for such assays. The in vitro and in vivo human Syk activities of the inventive compounds can be determined by various procedures known in the art, such as a test for their ability to inhibit the activity of human plasma Syk. […] The IC50 value is the concentration (in nM) of the compound required to provide 50% inhibition of human Syk proteolytic activity.
An in vitro assay for detecting and measuring inhibition activity against Syk is as follows:
Inhibition of Syk Tyrosine Phosphorylation Activity
Potency of candidate molecules for inhibiting Syk tyrosine phosphorylation activity is assessed by measuring the ability of a test compound to inhibit Syk-mediated tyrosine phosphorylation of a Syk-specific substrate.
SYK tyrosine phosphorylation activity is measured using the LANCE™ Technology developed by Perkin Elmer Life and Analytical Sciences (Boston, Mass.). LANCE™ refers to homogeneous time resolved fluorometry applications using techniques such as time-resolved fluorescence resonance energy transfer assay (TR-FRET) (see generally for procedures in Perkin Elmer Application Note-How to Optimize a Tyrosine Kinase Assay Using Time Resolved Fluorescence-Based LANCE Detection, wwww.perkinelmer.com/lifesciences). The assay principle involves detection of a phosphorylated substrate using energy transfer from a phosphospecific europium-labeled antibody to streptavidin-allophycocyanin as an acceptor.
To test the ability of candidate molecules to inhibit SYK tyrosine phosphorylation activity, molecules are reconstituted in 30% DMSO and serially diluted 1:3 with the final dilution containing DMSO in the absence of the candidate molecule. The final DMSO concentration in the assay is 3%. Kinase assays are performed as a two part reaction. The first reaction is a kinase reaction and which comprises of a candidate molecule, full length active recombinant SYK enzyme (Millipore, Calif.) and biotin-labeled SYK-specific substrate biotin-[…]-OH. The second reaction involves termination of the kinase reaction and the simultaneous addition of the detection reagents-europium-labeled anti-phosphotyrosine reagent (Eu-W1024-PY100, Perkin Elmer, Boston, Mass.) and Streptavidin-Allophycocyanin detection reagent (SA-APC, Prozyme, CA). The kinase reaction is performed in a black U-bottom 96-well microtitre plate. The final reaction volume is 50 μL and contains a final concentration of 1 nM active SYK enzyme, 550 nM SYK-substrate, and 100 nM ATP diluted in a buffer containing 50 mM Tris pH 7.5, 5 mM MgCl2, and 1 mM DTT. The reaction is allowed to proceed for 1 hour at room temperature. The quench buffer contains 100 mM Tris pH 7.5, 300 mM NaCl2, 20 mM EDTA, 0.02% Brij35, and 0.5% BSA. The detection reagents are added to the reaction mixture at the following dilutions-1:500 for Eu-W1024-PY100 and 1:250 for SA-APC. The kinase reaction is terminated by the addition of 50 μL quench buffer containing the detection reagents. […] Detection of the phosphorlated substrate in the absence and presence of inhibitors is measured in the TR-FRET instrument, Analyst HT (Molecular Probes, Sunnyvale, Calif.) and the condition for measurements are set up using CriterionHost Release 2.0 (Molecular Probes, Sunnyvale, Calif.). […] Inhibition of SYK-tyrosine kinase activity is calculated as the maximum response observed in the presence of inhibitor, compared to that in the absence of inhibitor. […]
On the technique in general: TR-FRET usually uses a lanthanide donor and a delayed reading to cut background.

Regarding `CC(=O)N1CCN(c2ccc(Nc3cc(NC4CC4)c(C(N)=O)cn3)cc2)CC1` [Example 2], the IC50 was more than 1000 nM. The figure for `CC(=O)N1CCN(c2ccc(Nc3cc(NCc4cccc(F)c4)c(C(N)=O)cn3)cc2)CC1` [Example 229] is more than 1000 nM.

Broadly, the IC50 is the concentration that gives 50% inhibition.
